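These data come from cells grown in 96-well plates and exposed to compound for 48 hours at five concentrations. At the GI50, growth is halved. At the TGI there is no net growth.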
Columns and labels:
Assay in all cases: NCI-60 cell line screen, 48 h
A549 NSCLC = test system: A549 NSCLC
HCT-15 colon = test system: HCT-15 colon
HL-60(TB) leukemia = test system: HL-60(TB) leukemia
HOP-62 NSCLC = test system: HOP-62 NSCLC
HOP-92 NSCLC = test system: HOP-92 NSCLC
PC-3 prostate = test system: PC-3 prostate
SF-539 CNS = test system: SF-539 CNS
SK-MEL-28 melanoma = test system: SK-MEL-28 melanoma
SN12C renal = test system: SN12C renal
SK-MEL-2 melanoma = test system: SK-MEL-2 melanoma

With `CCOc1ncn(-c2ccc(NC(=S)Nc3cccc(O)c3)cc2)n1` the TGI (A549 NSCLC) was > 100 µM, the TGI (HCT-15 colon) was > 100 µM and the TGI (HL-60(TB) leukemia) was > 100 µM. For the same compound, the TGI (HOP-62 NSCLC) was > 100 µM, the TGI (HOP-92 NSCLC) was > 100 µM and the TGI (PC-3 prostate) was > 100 µM. The TGI (SF-539 CNS) was > 100 µM, the TGI (SK-MEL-28 melanoma) was > 100 µM and the TGI (SN12C renal) was > 100 µM.
`ClCCN(CCCl)Cc1ccc(Nc2ccnc3cc(Cl)ccc23)cc1` gave a GI50 (A549 NSCLC) of 1.11 µM, a TGI (A549 NSCLC) of 5.08 µM and a GI50 (HL-60(TB) leukemia) of 0.403 µM. For the same compound, the TGI (HL-60(TB) leukemia) was 3.07 µM, the GI50 (HOP-62 NSCLC) was 1.34 µM and the TGI (HOP-62 NSCLC) was 5.16 µM. The GI50 (PC-3 prostate) was 1.57 µM, the TGI (PC-3 prostate) was 5.71 µM and the GI50 (SK-MEL-28 melanoma) was 2.15 µM. For the same compound, the TGI (SK-MEL-28 melanoma) was 5.31 µM, the GI50 (SN12C renal) was 0.48 µM and the TGI (SN12C renal) was 4.02 µM.
In the case of `COc1ccc(C(=O)C2CC3(CCC2(O)c2ccc(OC)cc2)CC(=O)Nc2ccccc2C3=O)cc1` (centres undefined), the TGI (A549 NSCLC) was > 100 µM, the TGI (HCT-15 colon) was > 100 µM and the TGI (HL-60(TB) leukemia) was > 100 µM. For the same compound, the TGI (HOP-62 NSCLC) was > 100 µM, the TGI (HOP-92 NSCLC) was > 100 µM and the TGI (PC-3 prostate) was > 100 µM. For the same compound, the TGI (SF-539 CNS) was > 100 µM, the TGI (SK-MEL-2 melanoma) was > 100 µM and the TGI (SN12C renal) was > 100 µM.
`CC1(C)CCc2c(cc3c(c2O)CCC(C)(C)O3)O1` was tested, and the TGI (A549 NSCLC) was > 100 µM, the TGI (HCT-15 colon) was > 100 µM and the TGI (HL-60(TB) leukemia) was 77.9 µM. For the same compound, the TGI (HOP-62 NSCLC) was > 100 µM, the TGI (PC-3 prostate) was > 100 µM and the TGI (SF-539 CNS) was > 100 µM. For the same compound, the TGI (SK-MEL-2 melanoma) was 98.3 µM, the TGI (SK-MEL-28 melanoma) was > 100 µM and the TGI (SN12C renal) was > 100 µM.
For `Cc1ccc(OP2(=O)Oc3ccc4ccccc4c3CN2c2ccc(Cl)cc2)cc1C` (centres undefined), the TGI (A549 NSCLC) was > 100 µM, the TGI (HCT-15 colon) was > 100 µM and the TGI (HL-60(TB) leukemia) was > 100 µM. For the same compound, the TGI (HOP-62 NSCLC) was > 100 µM, the TGI (HOP-92 NSCLC) was > 100 µM and the TGI (SF-539 CNS) was > 100 µM. For the same compound, the TGI (SK-MEL-2 melanoma) was > 100 µM, the TGI (SK-MEL-28 melanoma) was > 100 µM and the TGI (SN12C renal) was > 100 µM.
For `Nc1cc2c(cc1[N+](=O)[O-])[nH]c1c(-c3ccccc3)nccc12`, the TGI (A549 NSCLC) was 69.6 µM, the TGI (HCT-15 colon) was > 57.3 µM and the TGI (HL-60(TB) leukemia) was 42.1 µM. The TGI (HOP-62 NSCLC) was 41.4 µM, the TGI (HOP-92 NSCLC) was 42.7 µM and the TGI (SF-539 CNS) was > 75.4 µM. The TGI (SK-MEL-2 melanoma) was 38.2 µM, the TGI (SK-MEL-28 melanoma) was 87.3 µM and the TGI (SN12C renal) was > 100 µM.
With `C=C/C(C)=C/[C@H](C)C(=O)C[C@H](O)CC1CC(=O)NC(=O)C1` the TGI (A549 NSCLC) was > 100 µM, the TGI (HCT-15 colon) was > 100 µM and the TGI (HL-60(TB) leukemia) was > 100 µM. The TGI (HOP-62 NSCLC) was > 91.1 µM, the TGI (HOP-92 NSCLC) was > 89.6 µM and the TGI (SF-539 CNS) was > 100 µM. For the same compound, the TGI (SK-MEL-2 melanoma) was > 100 µM, the TGI (SK-MEL-28 melanoma) was > 91.8 µM and the TGI (SN12C renal) was > 100 µM.
For `COC[C@H]1C(=O)NCC(=O)N2NCCC[C@H]2C(=O)N(O)[C@H](C)C(=O)O[C@@H](C(C)C)[C@H](NC(=O)[C@](C)(O)[C@]2(O)CC[C@@H](CC(C)C)[C@H](C)O2)C(=O)N2NCCC[C@@H]2C(=O)N1O`, the GI50 (A549 NSCLC) was < 0.0128 µM, the TGI (A549 NSCLC) was 0.028 µM and the GI50 (HCT-15 colon) was 0.0176 µM. The TGI (HCT-15 colon) was 0.0433 µM, the GI50 (HL-60(TB) leukemia) was 0.0151 µM and the TGI (HL-60(TB) leukemia) was 0.0399 µM. For the same compound, the GI50 (HOP-62 NSCLC) was < 0.01 µM, the TGI (HOP-62 NSCLC) was 0.0149 µM and the GI50 (HOP-92 NSCLC) was 0.0161 µM. The TGI (HOP-92 NSCLC) was 0.0377 µM, the GI50 (PC-3 prostate) was 0.0174 µM and the TGI (PC-3 prostate) was 0.0326 µM. It also gave a GI50 (SF-539 CNS) of 0.0146 µM, a TGI (SF-539 CNS) of 0.0285 µM and a GI50 (SK-MEL-2 melanoma) of 0.0152 µM. For the same compound, the TGI (SK-MEL-2 melanoma) was 0.0304 µM, the GI50 (SK-MEL-28 melanoma) was < 0.01 µM and the TGI (SK-MEL-28 melanoma) was 0.0221 µM. The GI50 (SN12C renal) was < 0.0126 µM and the TGI (SN12C renal) was 0.0411 µM.
`CO/C(=N\N=C(/C)C(F)(F)F)c1ccncc1` was tested, and the TGI (HCT-15 colon) was > 100 µM, the TGI (HL-60(TB) leukemia) was > 100 µM and the TGI (HOP-62 NSCLC) was > 100 µM. For the same compound, the TGI (HOP-92 NSCLC) was > 100 µM, the TGI (PC-3 prostate) was > 100 µM and the TGI (SK-MEL-2 melanoma) was > 100 µM. The TGI (SK-MEL-28 melanoma) was > 100 µM and the TGI (SN12C renal) was > 100 µM.

— PubChem BioAssay (NCI)
